Consider 27 molecules from patent US11072581B2, “N-acyl-arylsulfonamide derivatives as aminoacyl-tRNA synthetase inhibitors” (Oxford Drug Design Limited, priority 2015, dated 2021).

The target in series [1] is T1, EcoIRS (isoleucyl-tRNA synthetase from Escherichia coli) (Escherichia coli, UniProt P00956).
T1 construct: made in house; host or cells: Escherichia coli M15
Nature of the series: aaRS aminoacylation assay (ATP consumption), EcoIRS. It counts as biochemical. The settings on record: i.a. = inactive at a concentration below 50 uM. The procedure:
(§1) The compounds have been tested for antibacterial activity in vitro as aminoacyl-tRNA synthetases (aaRS) inhibitors following the following process.
(§2) Leucyl-, valyl- and isoleucyl-tRNA synthetases (LRS, VRS and IRS, respectively) from Escherichia coli (Eco) and Staphylococcus aureus (Sau).
(§3) Escherichia coli M15 cells transformed with plasmid pQE-60, or pQE-70, containing the open-reading frame sequence of one targeted aaRS were induced with 1 mM IPTG (Isopropyl β-D-1-thiogalactopyranoside) for 3 h at 37° C. Bacterial cells were harvested and lysed with 20 mM NaH2PO4 (pH 8.0), 200 mM NaCl, 10 mM imidazole and protease inhibitor cocktail (Roche). Pathogenic aaRS was purified by nickel affinity standard chromatography. Protein concentration was determined by spectrophotometry.
(§4) tRNA^Leu, tRNA^Val and tRNA^Ile from E. coli and S. aureus were transcribed in vitro for 4 h at 37° C. using T7 RNA polymerase. Transcription reaction contained 40 mM Tris-HCl (pH 8.0), 22 mM MgCl2, 1 mM spermidine, 5 mM DTT, 0.01% Triton X-100, 4 mM GTP, 4 mM ATP, 4 mM UTP, 4 mM CTP, 16 mM GMP, […] T7 RNA polymerase and 150 μg BstNI digested plasmid. Once finished, the reaction was applied on a 6% polyacrylamide-8 M urea denaturing gel to purify the transcribed tRNA and discard any impurities. Purified tRNA was quantified with Nanodrop 2000 (Thermo Scientific).
(§5) The aminoacylation reaction catalyzed by aminoacyl-tRNA synthetases (aaRS) takes place in two steps. In the first step, aaRS activates its cognate amino acid with ATP; and in the second step the activated amino acid is loaded to its corresponding tRNA. This reaction can be summarized as follows: ARS+aa+ATP=ARS-aa-AMP+PPi ARS-aa-AMP+tRNA=aa-tRNA+AMP+ARS [2] (ARS, Aminoacyl-tRNA synthetase; aa, amino acid; ARS-aa-AMP, enzyme-bound to aminoacyl-adenylate; aa-tRNA, aminoacyl-tRNA).
(§6) The activity of the pathogenic aaRSs was monitored by measuring the ATP consumption rate, since this consumption is directly proportional to the activity of the aaRS. If the tested compound, at a single point concentration of 50 μM, is inhibiting the aminoacylation reaction, there is a decrease in the ATP consumption, compared to the control reaction without compound, allowing the calculation of an inhibition ratio.
(§7) When the inhibition ratio for a given compound was above 80%, IC50 determination was performed with the same enzymatic assay (using the commercial kit Kinase RR from BioThema AB, Sweden) in the presence of serial dilutions of inhibitor. Known inhibitors of LRS, VRS or IRS were used as a positive control of the assay. The IC50 was calculated based on nonlinear regression analysis.

The target of series [2] is T2, SauLRS (leucyl-tRNA synthetase from Staphylococcus aureus) (Staphylococcus aureus, UniProt Q2FXH2).
T2 construct: made in house; host or cells: Escherichia coli M15
T2 sequence (Q2FXH2 1-805): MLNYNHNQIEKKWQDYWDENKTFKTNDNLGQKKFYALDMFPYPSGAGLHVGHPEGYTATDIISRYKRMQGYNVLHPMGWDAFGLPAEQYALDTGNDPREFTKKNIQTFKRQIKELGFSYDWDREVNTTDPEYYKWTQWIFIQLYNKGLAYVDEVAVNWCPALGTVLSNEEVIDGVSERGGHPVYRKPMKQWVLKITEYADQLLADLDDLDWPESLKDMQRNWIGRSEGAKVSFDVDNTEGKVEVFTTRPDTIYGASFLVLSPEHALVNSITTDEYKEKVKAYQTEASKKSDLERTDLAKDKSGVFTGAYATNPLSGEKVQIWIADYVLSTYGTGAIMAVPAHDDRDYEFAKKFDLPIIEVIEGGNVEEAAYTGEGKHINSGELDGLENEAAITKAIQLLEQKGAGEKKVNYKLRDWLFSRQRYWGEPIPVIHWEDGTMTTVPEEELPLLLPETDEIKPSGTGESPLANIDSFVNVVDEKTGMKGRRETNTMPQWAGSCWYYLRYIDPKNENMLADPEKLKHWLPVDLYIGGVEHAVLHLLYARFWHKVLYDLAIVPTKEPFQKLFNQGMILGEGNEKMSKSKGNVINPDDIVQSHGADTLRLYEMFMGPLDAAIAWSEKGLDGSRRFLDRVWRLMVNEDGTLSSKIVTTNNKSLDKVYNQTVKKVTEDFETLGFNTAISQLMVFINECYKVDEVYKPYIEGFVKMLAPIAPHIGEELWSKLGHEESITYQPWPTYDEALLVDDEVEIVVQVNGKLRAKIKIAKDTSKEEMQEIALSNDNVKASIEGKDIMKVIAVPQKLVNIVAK
Nature of the series: aaRS aminoacylation assay (ATP consumption), SauLRS. Type of series: biochemical. The procedure:
as §1, §2, §3, §4, §5, §6, §7

In series [3] the target is T3, EcoLRS (leucyl-tRNA synthetase from Escherichia coli) (Escherichia coli, UniProt P07813).
T3 construct: made in house; host or cells: Escherichia coli M15
T3 sequence (P07813 whole entry): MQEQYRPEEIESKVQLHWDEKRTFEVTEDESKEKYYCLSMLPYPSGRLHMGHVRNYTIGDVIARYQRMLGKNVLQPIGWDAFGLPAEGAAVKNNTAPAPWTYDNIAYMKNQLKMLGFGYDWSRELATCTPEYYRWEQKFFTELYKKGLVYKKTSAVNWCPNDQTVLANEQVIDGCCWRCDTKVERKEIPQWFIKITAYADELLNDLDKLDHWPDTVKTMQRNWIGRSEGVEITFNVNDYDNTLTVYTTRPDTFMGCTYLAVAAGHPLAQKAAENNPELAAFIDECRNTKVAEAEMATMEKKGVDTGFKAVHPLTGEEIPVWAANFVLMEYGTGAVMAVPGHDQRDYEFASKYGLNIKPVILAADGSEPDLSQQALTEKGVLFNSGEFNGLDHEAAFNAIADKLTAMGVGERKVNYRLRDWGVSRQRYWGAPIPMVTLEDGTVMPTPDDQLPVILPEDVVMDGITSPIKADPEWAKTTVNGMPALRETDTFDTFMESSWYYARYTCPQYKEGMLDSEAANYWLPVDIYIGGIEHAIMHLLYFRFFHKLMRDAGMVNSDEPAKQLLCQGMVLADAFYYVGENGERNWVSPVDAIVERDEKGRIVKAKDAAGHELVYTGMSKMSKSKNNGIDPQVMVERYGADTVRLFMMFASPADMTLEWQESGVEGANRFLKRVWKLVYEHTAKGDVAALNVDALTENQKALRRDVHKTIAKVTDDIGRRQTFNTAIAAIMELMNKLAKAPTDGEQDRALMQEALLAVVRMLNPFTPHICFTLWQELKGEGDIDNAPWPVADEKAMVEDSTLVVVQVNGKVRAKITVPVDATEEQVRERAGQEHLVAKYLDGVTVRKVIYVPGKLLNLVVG
Kind of series: aaRS aminoacylation assay (ATP consumption), EcoLRS. Type of series: biochemical. The procedure: as §1, §2, §3, §4, §5, §6, §7

Setting [4] is: i.a. = inactive at a concentration below 50 uM, read-out: IC50 SauLRS.
Setting [5] is: i.a. = inactive at a concentration below 50 uM, read-out: IC50 EcoLRS.
Setting [6] is: i.a. = inactive at a concentration below 50 uM.

Counter-ions that a name gives are not always drawn. Like-named read-outs stand apart in the source and are kept apart here.

T1 sequence (P00956 whole entry): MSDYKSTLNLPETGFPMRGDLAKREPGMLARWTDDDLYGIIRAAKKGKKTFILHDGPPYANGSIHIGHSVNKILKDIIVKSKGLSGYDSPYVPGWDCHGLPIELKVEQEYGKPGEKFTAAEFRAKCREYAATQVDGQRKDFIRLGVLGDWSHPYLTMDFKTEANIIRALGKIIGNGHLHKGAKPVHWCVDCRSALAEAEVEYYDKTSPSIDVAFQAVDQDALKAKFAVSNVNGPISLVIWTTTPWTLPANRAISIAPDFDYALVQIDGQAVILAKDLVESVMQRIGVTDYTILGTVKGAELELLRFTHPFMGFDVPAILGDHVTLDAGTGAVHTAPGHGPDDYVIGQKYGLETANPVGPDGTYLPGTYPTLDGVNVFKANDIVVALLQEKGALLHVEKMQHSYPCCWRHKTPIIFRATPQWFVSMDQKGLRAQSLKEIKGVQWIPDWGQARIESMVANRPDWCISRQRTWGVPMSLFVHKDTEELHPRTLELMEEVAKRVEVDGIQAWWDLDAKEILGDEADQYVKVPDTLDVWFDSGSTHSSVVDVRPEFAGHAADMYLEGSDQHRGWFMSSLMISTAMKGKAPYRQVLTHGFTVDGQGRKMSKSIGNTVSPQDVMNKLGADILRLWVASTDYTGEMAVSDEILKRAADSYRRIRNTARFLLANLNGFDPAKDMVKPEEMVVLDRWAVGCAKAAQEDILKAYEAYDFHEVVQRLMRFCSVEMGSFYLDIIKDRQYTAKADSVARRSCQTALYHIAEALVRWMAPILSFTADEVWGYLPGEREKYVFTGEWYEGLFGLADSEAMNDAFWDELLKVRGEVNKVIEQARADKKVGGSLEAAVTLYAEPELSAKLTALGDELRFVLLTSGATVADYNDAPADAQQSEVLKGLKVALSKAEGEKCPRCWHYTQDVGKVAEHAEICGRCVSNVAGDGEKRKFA

With `CC(C)C[C@H](N)C(=O)NS(=O)(=O)c1ccccc1` [Compound 5.1, (S)-2-amino-4-methyl-N-(phenylsulfonyl)pentanamide hydrochloride], the “IC50 EcoIRS” value in series [1] is reported as “i.a”. The IC50 (usually the concentration that inhibits the measured activity by half) worked out at 5400 nM in series [2] (setting [4]) and 35 nM in series [3] (setting [5]).
As for `CC(C)C[C@H](N)C(=O)NS(=O)(=O)c1cccc(Cl)c1` [Compound 5.4], in series [1], the “IC50 EcoIRS” value is on record as “i.a”. For the same molecule, the IC50 in series [2] (setting [4]) was 920 nM; in series [3] it was 31 nM.
The corresponding values for `CC(C)C[C@H](N)C(=O)NS(=O)(=O)c1ccccc1Cl` [Compound 5.5] are “i.a”, 13200 nM and 121 nM.
On the same counts, the results for `CC(C)C[C@H](N)C(=O)NS(=O)(=O)c1ccccc1F` [Compound 5.6] are “i.a”, 17000 nM and 233 nM.
The corresponding values for `CCCCc1ccc(S(=O)(=O)NC(=O)[C@@H](N)CC(C)C)cc1` [Compound 5.7] are “i.a”, 4900 nM and 668 nM.
As for `CC(C)C[C@H](N)C(=O)NS(=O)(=O)c1cccc2ccccc12` [Compound 5.13], the “IC50 EcoIRS” value in series [1] is given as “i.a”. The figures for the IC50 in series [2] (setting [4]) and in series [3] were 16100 nM and 59 nM, respectively.
Consider `CC(C)C[C@H](N)C(=O)NS(=O)(=O)c1cccc2c(N(C)C)cccc12` [Compound 5.16, (S)-2-amino-N-((5-(dimethylamino)naphthalen-1-yl)sulfonyl)-4-methylpentanamide hydrochloride], for which the “IC50 EcoIRS” value in series [1] is given as “i.a”. Also, in series [2] (setting [6]), the “IC50 SauLRS” value is “i.a”. Further, in series [3], the IC50 is 4100 nM.
Take `CC(C)C[C@H](N)C(=O)NS(=O)(=O)c1cccc2cccnc12` [Compound 5.19]: in series [1], the “IC50 EcoIRS” value is “i.a”. Further, the values for the IC50 in series [2] (setting [4]) and in series [3] were 16800 nM and 780 nM, respectively.
On the same counts, the results for `CC(C)C[C@H](N)C(=O)NS(=O)(=O)c1ccc(Br)c2ccncc12` [Compound 5.22, trifluoroacetate] are “i.a”, 11500 nM and 2400 nM.
The corresponding values for `CC(C)C[C@H](N)C(=O)NS(=O)(=O)c1cccc2cc(C(N)=O)ncc12` [Compound 5.24, 8-(N-(L-Leucyl)sulfamoyl)isoquinoline-3-carboxamide] are “i.a”, 8500 nM and 11 nM.
The corresponding values for `CC(C)C[C@H](N)C(=O)NS(=O)(=O)c1cccc2c1CNCC2` [Compound 5.26, (S)-2-amino-4-methyl-N-((1,2,3,4-tetrahydroisoquinolin-8-yl)sulfonyl) pentanamide trifluoroacetate] are “i.a”, 20000 nM and 176 nM.
Take `Cc1cc(-c2cccc(S(=O)(=O)NC(=O)[C@@H](N)CC(C)C)c2)nc(N)n1` [Compound 5.35, (S)-2-amino-N-((3-(2-amino-6-methylpyrimidin-4-yl)phenyl)sulfonyl)-4-methylpentanamide]: the melting point (in general, the temperature, or range, at which the solid turns liquid) is 241 to 242 °C (dec.). For the same molecule, in series [2] (setting [4]), the IC50 was 4340 nM. The molecule further registered an IC50 in series [3] of 14 nM.
Consider `COc1cc(-c2cccc(S(=O)(=O)NC(=O)[C@@H](N)CC(C)C)c2)nc(N)n1` [Compound 5.36], for which the melting point was 87 to 88 °C (dec.). For the same molecule, the IC50 in series [2] (setting [4]) is 3000 nM. Further, in series [3], half-maximal inhibition (IC50) required 12 nM.
With `CC(C)C[C@H](N)C(=O)NS(=O)(=O)c1cccc(-c2ccnc(N)n2)c1` [Compound 5.37], the melting point is 224 to 226 °C (dec.). The IC50 in series [2] (setting [4]) is 2180 nM. For the same molecule, the IC50 in series [3] (setting [5]) was determined as 54 nM.
Regarding `CC(C)C[C@H](N)C(=O)NS(=O)(=O)c1cccc(-c2nc(N)nc3nc[nH]c23)c1` [Compound 5.38], the melting point was 117 °C (dec.). Also, the IC50 in series [2] (setting [4]) worked out at 1110 nM. Inhibition in series [3] was half-maximal at 84 nM (IC50).
As to `Cc1cc(-c2cccc(S(=O)(=O)NC(=O)[C@@H](N)CC(C)C)c2)ncn1` [Compound 5.39], the melting point worked out at 246 °C. For the same molecule, the IC50 in series [2] (setting [4]) stood at 2000 nM. The IC50 in series [3] was determined as 45 nM.
The molecule `CC[C@H](C)[C@H](N)C(=O)NS(=O)(=O)c1cccc(-c2cc(C)nc(N)n2)c1` [Compound 5.40] gave a melting point of 97 °C. Besides, the “IC50 SauLRS” value in series [2] (setting [6]) is given as “i.a”. The IC50 in series [3] stood at 21800 nM.
Regarding `CC(C)C[C@H](N)C(=O)NS(=O)(=O)c1cccc(-c2cc(-c3ccccc3)nc(N)n2)c1` [Compound 5.41], the melting point was 186 to 188 °C (dec.). Further, in series [2] (setting [4]), the IC50 was determined as 3000 nM. The molecule further had an IC50 in series [3] of 220 nM.
As to `CC(C)C[C@H](N)C(=O)NS(=O)(=O)c1cccc(-c2ccncc2)c1` [Compound 5.42], the melting point was 151 °C (dec.). In series [2], the IC50 is 810 nM. The IC50 in series [3] (setting [5]) amounted to 13 nM.
In the case of `CC(C)C[C@H](N)C(=O)NS(=O)(=O)c1cccc(-c2ccnc(N)c2)c1` [Compound 5.43], the melting point was 141 °C (dec.). Further, the IC50 in series [2] (setting [4]) turned out to be 330 nM. Moreover, half-maximal inhibition in series [3] (IC50) was put at 2 nM.
On the same counts, the results for `CC(C)C[C@H](N)C(=O)NS(=O)(=O)c1cccc(-c2cccc(N)n2)c1` [Compound 5.44] are 148 °C (dec.), 1640 nM and 6 nM.
With `CC(C)C[C@H](N)C(=O)NS(=O)(=O)c1cccc(-c2cc(N)nc(N)n2)c1` [Compound 5.45], the melting point is 234 °C (dec.). In series [2] (setting [4]), the IC50 was 720 nM. This molecule also had an IC50 in series [3] of 20 nM.
Turning to `CC(C)C[C@H](N)C(=O)NS(=O)(=O)c1cccc(-c2cc(N)ncn2)c1` [Compound 5.46], the figures for the IC50 in series [2] (setting [4]) and in series [3] were 1300 nM and 10 nM, respectively.
On the same counts, the results for `CCc1cc(-c2cccc(S(=O)(=O)NC(=O)[C@@H](N)CC(C)C)c2)nc(N)n1` [Compound 5.47] are 2150 nM and 11 nM.
In the case of `CC(C)C[C@H](N)C(=O)NS(=O)(=O)c1cccc(-c2ncnc(N)n2)c1` [Compound 5.48], the IC50 in series [2] (setting [4]) came to 530 nM; in series [3], 3.4 nM.
In the case of `CC(C)C[C@H](N)C(=O)NS(=O)(=O)c1cccc(-c2ccnc(Cl)n2)c1` [Compound 5.49], the melting point was 231 to 238 °C (dec.). In addition, the IC50 in series [2] (setting [4]) amounted to 6230 nM. It took 64 nM to reach half-maximal inhibition in series [3] (IC50).
On the same counts, the results for `CC(C)C[C@H](N)C(=O)NS(=O)(=O)c1cccc(-c2ccnc(O)n2)c1` [Compound 5.50] are 191 to 221 °C (dec.), 13900 nM and 63 nM.
